{"source": "patent US20150105252A1", "about": "“SUBSTITUTED PYRAZOLES AS HERBICIDES” (E I DU PONT DE NEMOURS AND COMPANY, priority 2013, published 2015)", "key": {"pigweed [1]": {"tested_on": "pigweed", "assay": "Test A preemergence", "assay_type": "in vivo, Amaranthus retroflexus", "details": "for Pigweed plant response rating: 0 to 100 scale", "procedure,_shortened": "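Injury readout: eye-scored versus untreated controls, 0 to 100. Exposure period: ~10 days, greenhouse. Application: soil-directed spray over sown seed (pre) or spray on seedlings 2–10 cm tall with one or two leaves (post), compound carried in non-phytotoxic solvent including surfactant.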"}, "barnyardgrass": {"tested_on": "barnyardgrass", "assay": "Test B flood", "assay_type": "in vivo, Echinochloa crus-galli", "details": "250 g ai/ha, visual rating on 0 to 100 scale (0 no effect, 100 complete control), 13 to 15 days", "procedure,_shortened": "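Paddy-water application: seedlings at 2-leaf stage, flood depth 3 cm maintained for the test duration. Evaluation after 13–15 days in the greenhouse by eye relative to controls; 0–100 scale.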"}, "foxtail, giant": {"tested_on": "foxtail, giant", "assay": "Test C preemergence", "assay_type": "in vivo, Setaria faberii", "procedure,_shortened": "(§1)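 Seeds sown in loam–sand blend and treated preemergence with test chemicals in non-phytotoxic solvent with surfactant; postemergence plants in peat-based medium, treated at 2–18 cm (1- to 4-leaf stage). Greenhouse 13 to 15 days, then visual rating versus controls, 0 (no effect) to 100 (complete control).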"}, "pigweed [2]": {"tested_on": "pigweed", "assay": "Test C preemergence", "assay_type": "in vivo, Amaranthus retroflexus", "procedure,_shortened": "as §1"}, "ragweed [3]": {"tested_on": "ragweed", "assay": "Test C preemergence", "assay_type": "in vivo, Ambrosia elation", "procedure,_shortened": "as §1"}, "oilseed rape [4]": {"tested_on": "oilseed rape", "assay": "Test C preemergence", "assay_type": "in vivo, Brassica napus", "details": "preemergence", "procedure,_shortened": "as §1"}, "nutsedge, yellow": {"tested_on": "nutsedge, yellow", "assay": "Test C postemergence", "assay_type": "in vivo, Cyperus esculentus", "details": "for Nutsedge, Yellow plant response rating: scale 0 to 100", "procedure,_shortened": "as §1"}, "ragweed [5]": {"tested_on": "ragweed", "assay": "Test C postemergence", "assay_type": "in vivo, Ambrosia elation", "procedure,_shortened": "as §1"}, "soybean": {"tested_on": "soybean", "assay": "Test C postemergence", "assay_type": "in vivo, Glycine max", "details": "for Plant response rating, Soybean / Soybean plant response rating: postemergence", "procedure,_shortened": "as §1"}, "oilseed rape [6]": {"tested_on": "oilseed rape", "assay": "Test C postemergence", "assay_type": "in vivo, Brassica napus", "details": "for Oilseed Rape plant response rating: scale 0 to 100", "procedure,_shortened": "as §1"}, "oat, wild": {"tested_on": "oat, wild", "assay": "Test C postemergence", "assay_type": "in vivo, Avena fatua", "details": "for Oat, Wild plant response rating: scale 0 to 100", "procedure,_shortened": "as §1"}, "kochia": {"tested_on": "kochia", "assay": "Test C postemergence", "assay_type": "in vivo, Kochia scoparia", "details": "for Kochia plant response rating: scale 0 to 100", "procedure,_shortened": "as §1"}, "[7]": {"details": "preemergence, 31 g ai/ha, visual rating, scale 0 to 100 (0 no effect, 100 complete control), 13 to 15 days"}, "[8]": {"details": "preemergence, 62 g ai/ha, scale 0 to 100 (0 no effect, 100 complete control), 13 to 15 days"}, "[9]": {"details": "preemergence, 125 g ai/ha, 13 to 15 days, scale 0 to 100, 0 = no effect, 100 = complete control"}, "[10]": {"details": "preemergence, 250 g ai/ha, scale 0 to 100, 0 is no effect, 100 is complete control"}, "[11]": {"details": "Postemergence, 31 g ai/ha, visually evaluated after 13 to 15 days"}, "[12]": {"details": "postemergence, 250 g ai/ha, scale 0 to 100 (0 no effect, 100 complete control)"}, "[13]": {"details": "postemergence, 125 g ai/ha, scale 0 to 100, 0 no effect, 100 complete control"}, "[14]": {"details": "125 g ai/ha, scale 0 to 100, 0 no effect, 100 complete control"}, "[15]": {"details": "Preemergence, 16 g ai/ha, scale 0 to 100"}, "[16]": {"details": "preemergence, 31 g ai/ha, scale 0 to 100 (0 no effect, 100 complete control), 13 to 15 days"}, "[17]": {"details": "preemergence, 62 g ai/ha, 13 to 15 days, scale 0 to 100, 0 = no effect, 100 = complete control"}, "[18]": {"details": "preemergence, 125 g ai/ha, scale 0 to 100, 0 is no effect, 100 is complete control"}}, "data": [{"smiles": "CCc1cc(C(=O)NCC(F)(F)F)nn1Cc1ccnc(SC(F)(F)F)c1", "note": "[Compound 214]", "values": [{"measurement": "Pigweed plant response rating (0 to 100 scale)", "setting": "pigweed [1]; preemergence, 125 g ai/ha, visual injury approx. 10 days after treatment", "result": 100}, {"measurement": "Plant response rating, Barnyardgrass", "setting": "barnyardgrass", "result": 50}, {"measurement": "Foxtail, Giant plant response rating", "setting": "foxtail, giant; [7]", "result": 90}, {"measurement": "Foxtail, Giant plant response rating", "setting": "foxtail, giant; [8]", "result": 98}, {"measurement": "Plant response rating, Foxtail, Giant", "setting": "foxtail, giant; [9]", "result": 100}, {"measurement": "Foxtail, Giant plant response rating", "setting": "foxtail, giant; [10]", "result": 100}, {"measurement": "Pigweed plant response rating", "setting": "pigweed [2]; [7]", "result": 100}, {"measurement": "Pigweed plant response rating", "setting": "pigweed [2]; [8]", "result": 100}, {"measurement": "Plant response rating, Pigweed", "setting": "pigweed [2]; [9]", "result": 100}, {"measurement": "Pigweed plant response rating", "setting": "pigweed [2]; [10]", "result": 100}, {"measurement": "Ragweed plant response rating", "setting": "ragweed [3]; [7]", "result": 85}, {"measurement": "Ragweed plant response rating", "setting": "ragweed [3]; [8]", "result": 98}, {"measurement": "Plant response rating, Ragweed", "setting": "ragweed [3]; [9]", "result": 100}, {"measurement": "Ragweed plant response rating", "setting": "ragweed [3]; [10]", "result": 98}, {"measurement": "Oilseed Rape plant response rating", "setting": "oilseed rape [4]; 31 g ai/ha, visual rating, scale 0 to 100 (0 no effect, 100 complete control), 13 to 15 days", "result": 80}, {"measurement": "Oilseed Rape plant response rating", "setting": "oilseed rape [4]; 62 g ai/ha, scale 0 to 100 (0 no effect, 100 complete control), 13 to 15 days", "result": 95}, {"measurement": "Plant response rating, Oilseed Rape", "setting": "oilseed rape [4]; 125 g ai/ha, 13 to 15 days, scale 0 to 100, 0 = no effect, 100 = complete control", "result": 95}, {"measurement": "Oilseed Rape plant response rating", "setting": "oilseed rape [4]; 250 g ai/ha, scale 0 to 100, 0 is no effect, 100 is complete control", "result": 95}, {"measurement": "Plant response rating (scale of 0 to 100 where 0 is no effect and 100 is complete control), Nutsedge, Yellow", "setting": "nutsedge, yellow; [11]", "result": 0}, {"measurement": "Nutsedge, Yellow plant response rating", "setting": "nutsedge, yellow; postemergence, 62 g ai/ha", "result": 10}, {"measurement": "Plant response rating, Nutsedge, Yellow", "setting": "nutsedge, yellow; [12]", "result": 5}, {"measurement": "Plant response rating, Nutsedge, Yellow", "setting": "nutsedge, yellow; [13]", "result": 5}, {"measurement": "Plant response rating, Ragweed", "setting": "ragweed [5]; [12]", "result": 70}, {"measurement": "Plant response rating, Ragweed", "setting": "ragweed [5]; [13]", "result": 35}, {"measurement": "Plant response rating, Soybean", "setting": "soybean; 250 g ai/ha, scale 0 to 100 (0 no effect, 100 complete control)", "result": 95}, {"measurement": "Soybean plant response rating", "setting": "soybean; [14]", "result": 90}, {"measurement": "Oilseed Rape plant response rating", "setting": "oilseed rape [6]; postemergence, 62 g ai/ha", "result": 60}, {"measurement": "Plant response rating, Oilseed Rape", "setting": "oilseed rape [6]; [12]", "result": 70}, {"measurement": "Plant response rating, Oilseed Rape", "setting": "oilseed rape [6]; [13]", "result": 60}, {"measurement": "Plant response rating (scale of 0 to 100 where 0 is no effect and 100 is complete control), Oat, Wild", "setting": "oat, wild; [11]", "result": 10}, {"measurement": "Oat, Wild plant response rating", "setting": "oat, wild; postemergence, 62 g ai/ha", "result": 15}, {"measurement": "Plant response rating, Oat, Wild", "setting": "oat, wild; [12]", "result": 40}, {"measurement": "Plant response rating, Oat, Wild", "setting": "oat, wild; [13]", "result": 15}, {"measurement": "Plant response rating (scale of 0 to 100 where 0 is no effect and 100 is complete control), Kochia", "setting": "kochia; [11]", "result": 85}, {"measurement": "Kochia plant response rating", "setting": "kochia; postemergence, 62 g ai/ha", "result": 90}, {"measurement": "Plant response rating, Kochia", "setting": "kochia; [12]", "result": 90}, {"measurement": "Plant response rating, Kochia", "setting": "kochia; [13]", "result": 90}]}, {"smiles": "CCCNC(=O)c1cc(CC)n(Cc2ccnc(C(F)(F)F)c2)n1", "note": "[Compound 75]", "values": [{"measurement": "Pigweed plant response rating", "setting": "pigweed [1]; Preemergence, 500 g ai/ha, 0 no effect, 100 complete control", "result": 100}, {"measurement": "Pigweed plant response rating", "setting": "pigweed [1]; preemergence, 125 g ai/ha, visual injury, approx. 10 days", "result": 100}, {"measurement": "Plant response rating, Barnyardgrass", "setting": "barnyardgrass", "result": 40}, {"measurement": "Plant response rating, Foxtail, Giant", "setting": "foxtail, giant; [15]", "result": 80}, {"measurement": "Foxtail, Giant plant response rating", "setting": "foxtail, giant; [16]", "result": 85}, {"measurement": "Plant response rating, Foxtail, Giant", "setting": "foxtail, giant; [17]", "result": 100}, {"measurement": "Foxtail, Giant plant response rating", "setting": "foxtail, giant; [18]", "result": 100}, {"measurement": "Plant response rating, Pigweed", "setting": "pigweed [2]; [15]", "result": 85}, {"measurement": "Pigweed plant response rating", "setting": "pigweed [2]; [16]", "result": 100}, {"measurement": "Plant response rating, Pigweed", "setting": "pigweed [2]; [17]", "result": 100}, {"measurement": "Pigweed plant response rating", "setting": "pigweed [2]; [18]", "result": 100}, {"measurement": "Plant response rating, Ragweed", "setting": "ragweed [3]; [15]", "result": 70}, {"measurement": "Ragweed plant response rating", "setting": "ragweed [3]; [16]", "result": 90}, {"measurement": "Plant response rating, Ragweed", "setting": "ragweed [3]; [17]", "result": 90}, {"measurement": "Ragweed plant response rating", "setting": "ragweed [3]; [18]", "result": 100}, {"measurement": "Plant response rating (scale of 0 to 100), Nutsedge, Yellow", "setting": "nutsedge, yellow; Postemergence, 16 g ai/ha", "result": 0}, {"measurement": "Nutsedge, Yellow plant response rating", "setting": "nutsedge, yellow; Postemergence, 31 g ai/ha", "result": 5}, {"measurement": "Nutsedge, Yellow plant response rating", "setting": "nutsedge, yellow; postemergence, 62 g ai/ha", "result": 5}, {"measurement": "Plant response rating, Nutsedge, Yellow", "setting": "nutsedge, yellow; [13]", "result": 10}, {"measurement": "Plant response rating (scale of 0 to 100), Ragweed", "setting": "ragweed [5]; Postemergence, 16 g ai/ha", "result": 40}, {"measurement": "Ragweed plant response rating", "setting": "ragweed [5]; postemergence, 62 g ai/ha, scale 0 to 100", "result": 70}, {"measurement": "Plant response rating, Ragweed", "setting": "ragweed [5]; [13]", "result": 85}, {"measurement": "Plant response rating (scale of 0 to 100), Soybean", "setting": "soybean; Postemergence, 16 g ai/ha", "result": 40}, {"measurement": "Soybean plant response rating", "setting": "soybean; 62 g ai/ha, scale 0 to 100", "result": 75}, {"measurement": "Plant response rating, Soybean", "setting": "soybean; [14]", "result": 90}, {"measurement": "Plant response rating (scale of 0 to 100), Oilseed Rape", "setting": "oilseed rape [6]; Postemergence, 16 g ai/ha", "result": 20}, {"measurement": "Oilseed Rape plant response rating", "setting": "oilseed rape [6]; Postemergence, 31 g ai/ha", "result": 50}, {"measurement": "Oilseed Rape plant response rating", "setting": "oilseed rape [6]; postemergence, 62 g ai/ha", "result": 50}, {"measurement": "Plant response rating, Oilseed Rape", "setting": "oilseed rape [6]; [13]", "result": 60}, {"measurement": "Plant response rating (scale of 0 to 100), Oat, Wild", "setting": "oat, wild; Postemergence, 16 g ai/ha", "result": 5}, {"measurement": "Oat, Wild plant response rating", "setting": "oat, wild; Postemergence, 31 g ai/ha", "result": 5}, {"measurement": "Oat, Wild plant response rating", "setting": "oat, wild; postemergence, 62 g ai/ha", "result": 5}, {"measurement": "Plant response rating, Oat, Wild", "setting": "oat, wild; [13]", "result": 25}, {"measurement": "Plant response rating (scale of 0 to 100), Kochia", "setting": "kochia; Postemergence, 16 g ai/ha", "result": 30}, {"measurement": "Kochia plant response rating", "setting": "kochia; Postemergence, 31 g ai/ha", "result": 60}, {"measurement": "Kochia plant response rating", "setting": "kochia; postemergence, 62 g ai/ha", "result": 60}, {"measurement": "Plant response rating, Kochia", "setting": "kochia; [13]", "result": 90}]}]}
